Test results from US10765657B2, “Selamectin for treatment of sea lice infestations” (priority 2013, dated 2020).

How the values were obtained:
[1] = test system: naïve sea lice; assay: Prophylactic efficacy of medicated feed against sea lice challenge in fish; format: in vivo
Method: Experimental diets containing selamectin were administered to 15×2 m diameter tanks of 75 fish by voluntary feeding from Day 0 to Day 6. […] The study evaluated the three concentrations of test material in comparison to a negative control (placebo) and a positive control. Each group was run as triplicate tanks. In each group, sea lice were evaluated using a representative sample of 5 fish per tank on Day −1 (pre-treatment) and 10 fish per tank on days 10 and 30 (4 and 24 days post-treatment).
The prophylactic effect of treatment was determined by removing lice and using further sea lice challenges at intervals. All adult lice were removed from remaining fish following Day 30 and a further sea lice challenge took place on Day 37 (31 days post treatment) and lice counts and tissue samples taken from 10 fish per tank on Day 60 (53 days post treatment).
All adult lice were removed from remaining fish following Day 64 and 12 fish per tank were moved to 15×1 m diameter tanks. On Day 67 (61 days post-treatment) the fish in these 1 m tanks received a further sea lice challenge and on Day 90 (84 days post-treatment) lice counts and tissue samples were taken from 10 fish per tank.
On Day 76 (70 days post-treatment) the fish remaining in 2 m tanks received a further naïve sea lice challenge and on Day 99 (93 days post-treatment) lice counts and tissue samples were taken from 10 fish per tank.

[2] = test system: naïve sea lice, Lepeophtheirus salmonis; assay: Static 24 hour sea lice bioassay, naïve strain; conditions: 24 hours exposure, 0.2% DMSO in seawater, about 10-12° C.
[3] = test system: emamectin benzoate resistant sea lice, Lepeophtheirus salmonis; assay: Static 24 hour sea lice bioassay, emamectin benzoate resistant strain; conditions: 24 hours exposure, 0.2% DMSO in seawater, about 10-12° C.

Compound	prophylactic efficacy ([1]; 40 μg/kg/day oral in feed, Day 0 to Day 6, at 4.4 weeks) [%]	prophylactic efficacy ([1]; 40 μg/kg/day oral in feed, Day 0 to Day 6, at 10 weeks) [%]	prophylactic efficacy ([1]; 160 μg/kg/day oral in feed, Day 0 to Day 6, at 4.4 weeks) [%]	prophylactic efficacy ([1]; 160 μg/kg/day oral in feed, Day 0 to Day 6, out to 10 weeks) [%]	Adult females EC50 [2] [ppb]	Adult males EC50 [2] [ppb]	Adult females EC50 [3] [ppb]	Adult males EC50 [3] [ppb]	prophylactic efficacy ([1]; 50 μg/kg/day (commercially licensed value) oral in feed, at 4.4 weeks) [%]	prophylactic efficacy ([1]; 50 μg/kg/day (commercially licensed value) oral in feed, out to 10 weeks) [%]
CO[C@H]1C[C@H](O[C@@H]2/C(C)=C/C[C@@H]3C[C@@H](C[C@]4(CC[C@H](C)[C@@H](C5CCCCC5)O4)O3)OC(=O)[C@@H]3C=C(C)/C(=N/O)[C@H]4OC/C(=C\C=C\[C@@H]2C)[C@]43O)O[C@@H](C)[C@@H]1O [Selamectin, selamectin]	99.6	68.4	100	98.5	10.68	3.21	16.91	6.95	–	–
emamectin benzoate	–	–	–	–	29	112	65	202	100	72.9
